# Data: patent US11834717B2, “Biomarkers for cancer diagnosis, prediction or staging” (Universite du Luxembourg, priority 2017, dated 2023)
# System: MYO5B expression in CRC cell lines
# Assay: MYO5B expression in CRC cell lines after 5-aza-dC (DAC) treatment, RT-qPCR
# Type: cell-based
# Conditions: colon cancer (CRC) cell lines, 5 μM for four days vs vehicle (DMSO), 2-4 independent experiments, FIG. 3A
# Experimental: All CRC cell lines were obtained from the American Type Culture Collection (ATCC, Rockville, USA) and maintained in recommended culture conditions. For methylation analysis, cells were treated with 5 μM 5-Aza-2′-Deoxycytidine (5-aza-dC/DAC, Sigma) or vehicle (DMSO) for four days followed by RNA extraction.
# PCR conditions were used as previously described (Letellier et al, 2014) and the expression levels of the gene of interest were normalized against the housekeeping gene HPRT (Erickson et al, 2009). For bulk tissue and CRC cell lines, the RNA was extracted with the Mirneasy kit from Qiagen and the cDNA was obtained with the mirscript II (Qiagen). PCR cycling conditions as well as quality control and normalization steps were done in qBase+ (Biogazelle), using 2 reference genes as previously described (Qureshi-Baig et al, 2016; Ullmann et a, 2016).
# Over the last years, hypermethylation of tumor suppressor genes has been reported in different cancer types (Biswas & Rao, 2017). In a similar manner, MYO5B is methylated in both gastric tumors (Dong et al, 2013) and leukemias (Kuang et al, 2008). Thus, it was analyzed whether promoter methylation could explain the observed down-regulation of MYO5B in CRC. To this end, the expression of MYO5B in CRC cell lines was investigated first after treatment with 5-Aza-2′-Deoxycytidine (5-aza-dC/DAC), a known demethylating agent.
smiles,measurement,setting,value
"Nc1ncn([C@H]2C[C@H](O)[C@@H](CO)O2)c(=O)n1 [DAC, 5-Aza-2′-Deoxycytidine]",change of MYO5B basal expression levels after DAC treatment,,minor changes
same,change of MYO5B basal expression levels after DAC treatment,listed as 5-aza-dC,does not increase
